Reference: patent US20060141010A1, “Coated preparations that contain at least one hydroformate” (Basf Aktiengesellschaft, priority 2003, published 2006)

Tested on: one-day-old chickens
Assay: Feeding experiment using coated trisodium hydrogenformate preparations in a standard wheat-soy diet
Format: in vivo
Details: after 21 days, vs negative control (standard wheat-soy diet)
Experimental: A feeding experiment was carried out using one-day-old chickens. Trisodium hydrogenformate was coated with 0, 15 and 30% by weight hydrogenated soybean oil. Per dose, 2 repetitions were carried out, and 10 chickens were used in each feeding experiment.
A standard wheat-soy diet was used as negative control. The coated trisodium hydrogenformate preparations were added to the diet in exchange for cellulose (1% in the negative control).
Feeding results compared with the negative control [%] after 21 days.

[1] = 0.4 % by weight trisodium hydrogenformate in diet
[2] = 0.8 % by weight trisodium hydrogenformate in diet

## O=CO.O=C[O-].O=C[O-].O=C[O-].[Na+].[Na+].[Na+] [trisodium hydrogenformate]
[1]
  FCR (feed conversion rate), feeding results compared with the negative control: +2%
  Weight gain, feeding results compared with the negative control: +2%
[2]
  FCR (feed conversion rate), feeding results compared with the negative control: +5%
  Weight gain, feeding results compared with the negative control: +2%
